Assay [1] deals with CD4+ T cells. Particulars: cited from earlier work; for Allele(s): HLA class II allele(s) identified as MHC restriction elements of the CD4 epitope; for Restriction: T cell subset (CD4 or CD8) recognizing the SARS-CoV-2 epitope; for Allele(s) (HLA restriction): CD4-restricted epitopes, HLA class II alleles identified as MHC restriction elements.
Assay [2] has as its system CD4+ T cells. As to the kind of experiment: Meta-analysis of published SARS-CoV-2 CD4 T cell epitope data curated in the IEDB (25 studies). The class given is cell-based, human. Particulars: CD4R (D) Megapool, non-spike antigens; dominant = recognized in 3 or more donors/studies.
The mark [3] stands for this setting: SARS-CoV-2-derived CD4 epitopes, Yes = recognized by 3 or more donors/different studies.

“Also recorded” adds a separate entry of the source. Read-outs that look alike come from different tables or passages of the source.

Turning to 79 (KPRQKRTATKAYNVT) [compound 79], in the assay with CD4+ T cells [1], the “Allele(s)” value was “DPB1*14:01” and the Restriction result is reported as “CD4”.
For the substance 80 (KRTATKAYNVTQAFG) [compound 80], in the assay with CD4+ T cells [1], the “Allele(s)” value is “DQB1*06:02, DQB1*06:03” and the Restriction result is listed as “CD4”. In addition, the Dominant entry with CD4+ T cells [1] (setting [3]) is recorded as “Yes (more dominant epitopes are defined by being recognized by 3 or more donors/different studies)”.
On to 82 (TQAFGRRGPEQTQGN) [compound 82], for which, in the assay with CD4+ T cells [1], the Restriction result is given as “CD4”.
Take 83 (RRGPEQTQGNFGDQE) [compound 83]: the Restriction entry in the assay on CD4+ T cells [1] is on record as “CD4”.
Consider 84 (FGDQELIRQGTDYKH) [compound 84], for which, in the assay with CD4+ T cells [1], the Restriction result is reported as “CD4”.
For 85 (LIRQGTDYKHWPQIA) [compound 85], the Dominant entry in the assay with CD4+ T cells [1] (setting [3]) was “Yes (more dominant epitopes are defined by being recognized by 3 or more donors/different studies)”. Also, the Restriction entry with CD4+ T cells [1] is recorded as “CD4”.
Regarding 86 (TDYKHWPQIAQFAPS) [compound 86], in the assay on CD4+ T cells [1], the Restriction entry is “CD4”.
As to 87 (YKHWPQIAQFAPSAS) [compound 87], in the assay with CD4+ T cells [1] (setting [3]), the Dominant entry is reported as “Yes (more dominant epitopes are defined by being recognized by 3 or more donors/different studies)”. Also, the Restriction result in the assay on CD4+ T cells [1] is “CD4”.
For 88 (WPQIAQFAPSASAFF) [compound 88], in the assay with CD4+ T cells [1], the “Allele(s)” value is recorded as “DQB1*02:02, DQB1*05:03,; also recorded: DRB1*04:04, DRB1*07:01,; also recorded: DRB1*15:01” and the Restriction result is recorded as “CD4”. The Dominant result in the assay on CD4+ T cells [1] (setting [3]) is recorded as “Yes (more dominant epitopes are defined by being recognized by 3 or more donors/different studies)”.
With 89 (QFAPSASAFFGMSRI) [compound 89], in the assay on CD4+ T cells [1], the “Allele(s)” value was “DRB1*07:01” and the Restriction result is on record as “CD4”.
As to 90 (ASAFFGMSRIGMEVT) [compound 90], in the assay on CD4+ T cells [1], the “Allele(s)” value is given as “DQB1*05:03, DRB1*01:02,; also recorded: DRB1*14:01” and the Restriction entry is recorded as “CD4”. Further, in the assay with CD4+ T cells [1] (setting [3]), the Dominant result was “Yes (more dominant epitopes are defined by being recognized by 3 or more donors/different studies)”.
As for 91 (AFFGMSRIGMEVTPS) [compound 91], the Restriction result in the assay on CD4+ T cells [1] is “CD4”.
Regarding 92 (GMEVTPSGTWLTYTGAIKLD) [compound 92], the Dominant result in the assay on CD4+ T cells [1] (setting [3]) is given as “Yes (more dominant epitopes are defined by being recognized by 3 or more donors/different studies)”. In the assay with CD4+ T cells [1], the Restriction result was “CD4”.
In the case of 93 (GMEVTPSGTWLTYTG) [compound 93], in the assay with CD4+ T cells [1], the Restriction entry is “CD4”.
In the case of 94 (PSGTWLTYTGAIKLD) [compound 94], in the assay with CD4+ T cells [1], the “Allele(s)” value was “DQB1*06:03, DRB1*01:02,; also recorded: DRB1*01:03, DRB1*07:01,; also recorded: DRB1*15:01” and the Restriction result was “CD4”. In addition, in the assay on CD4+ T cells [1] (setting [3]), the Dominant entry is reported as “Yes (more dominant epitopes are defined by being recognized by 3 or more donors/different studies)”.
Consider 95 (GTWLTYTGAIKLDDK) [compound 95], for which the Dominant result with CD4+ T cells [1] (setting [3]) is “Yes (more dominant epitopes are defined by being recognized by 3 or more donors/different studies)”. In addition, in the assay on CD4+ T cells [1], the Restriction result is “CD4”.
Consider 96 (TWLTYTGAIKLDDKDPNF) [compound 96], for which the Restriction result in the assay on CD4+ T cells [1] was “CD4”.
Take 97 (LTYTGAIKLDDKDPN) [compound 97]: in the assay with CD4+ T cells [1], the “Allele(s)” value is “DRB1*07:01” and the Restriction result is on record as “CD4”.
99 (PNFKDQVILLNKHIDAYK) [compound 99]: in the assay on CD4+ T cells [1], the Restriction entry is reported as “CD4”.
As for 100 (FKDQVILLNKHIDAY) [compound 100], in the assay on CD4+ T cells [1], the “Allele(s)” value is “DRB1*03:01, DRB1*14:01,; also recorded: DRB1*14:06, DRB1*15:01,; also recorded: DRB1*16:02” and the Restriction result is “CD4”. In addition, the Dominant result with CD4+ T cells [1] (setting [3]) was “Yes (more dominant epitopes are defined by being recognized by 3 or more donors/different studies)”.
As for 101 (ILLNKHIDAYKTFPP) [compound 101], in the assay on CD4+ T cells [1], the “Allele(s)” value is “DRB1*14:06, DRB1*15:01” and the Restriction result is given as “CD4”. Moreover, the Dominant result in the assay with CD4+ T cells [1] (setting [3]) is listed as “Yes (more dominant epitopes are defined by being recognized by 3 or more donors/different studies)”.
Regarding 103 (QKKQQTVTLLPAADL) [compound 103], in the assay with CD4+ T cells [1], the “Allele(s)” value was “DRB1*01:02” and the Restriction result is given as “CD4”.
In the case of 104 (KQQTVTLLPAADLDDF) [compound 104], the Restriction result in the assay with CD4+ T cells [1] was “CD4”.
In the case of 106 (AADLDDFSKQLQQSM) [compound 106], the Restriction result in the assay with CD4+ T cells [1] was “CD4”.
108 (EEIAIILASFSASTS) [compound 108]: in the assay with CD4+ T cells [1], the “Allele(s)” value is given as “DQB1*02:02, DQB1*03:02,; also recorded: DRB1*04:10, DRB1*07:01” and the Restriction entry is “CD4”.
Regarding 115 (IATNGPLKVGGSCVL) [compound 115], in the assay on CD4+ T cells [1], the “Allele(s)” value is given as “DRB1*13:02” and the Restriction result is on record as “CD4”.
Regarding 253 (YIINLIIKNLSKSLT) [compound 253], the “Allele(s) (HLA restriction)” value with CD4+ T cells [1] is reported as “DRB1*11:02, DRB1*13:03”.
Turning to 257 (VKHVYQLRARSVSPK) [compound 257], in the assay with CD4+ T cells [1], the “Allele(s) (HLA restriction)” value was “DRB1*01:03, DRB1*07:01”.
As for 258 (QEEVQELYSPIFLIV) [compound 258], in the assay on CD4+ T cells [1] (CD4 epitopes, dominant = recognized by 3 or more donors/different studies), the Dominant result is reported as “Yes (more dominant epitopes are defined by being recognized by 3 or more donors/different studies)”.
Consider 2287 (FYVYSRVKNLNSSRV) [compound 2287], for which the Dominant result with CD4+ T cells [2] is listed as “Yes (more dominant epitopes are defined by being recognized by 3 or more donors/different studies)”.
For the substance 2288 (QFAYANRNRFLYIIK) [compound 2288], in the assay on CD4+ T cells [2], the Dominant entry is reported as “Yes (more dominant epitopes are defined by being recognized by 3 or more donors/different studies)”.
Take 2289 (VLAAVYRINWITGGI) [compound 2289]: the Dominant entry in the assay on CD4+ T cells [2] is “Yes (more dominant epitopes are defined by being recognized by 3 or more donors/different studies)”.
On to 2290 (YRINWITGGIAIAMA) [compound 2290], for which the Dominant result in the assay with CD4+ T cells [2] is “Yes (more dominant epitopes are defined by being recognized by 3 or more donors/different studies)”.
In the case of 2291 (CLVGLMWLSYFIASF) [compound 2291], the Dominant entry in the assay on CD4+ T cells [2] was “Yes (more dominant epitopes are defined by being recognized by 3 or more donors/different studies)”.
On to 2292 (MWLSYFIASFRLFAR) [compound 2292], for which the Dominant entry with CD4+ T cells [2] is given as “Yes (more dominant epitopes are defined by being recognized by 3 or more donors/different studies)”.
Same read-out and setting: with 2293 (TNILLNVPLHGTILT) [compound 2293] the entry was “Yes (more dominant epitopes are defined by being recognized by 3 or more donors/different studies)”; with 2294 (SELVIGAVILRGHLR) [compound 2294], “Yes (more dominant epitopes are defined by being recognized by 3 or more donors/different studies)”; with “2295 (GAVILRGHLRIAGHHLGR) [compound 2295]”, “Yes (more dominant epitopes are defined by being recognized by 3 or more donors/different studies)”.
On to 2296 (LRGHLRIAGHHLGRC) [compound 2296], for which, in the assay on CD4+ T cells [2], the Dominant entry was “Yes (more dominant epitopes are defined by being recognized by 3 or more donors/different studies)”.
As for 2297 (RGHLRIAGHHLGRCD) [compound 2297], the Dominant entry in the assay with CD4+ T cells [2] is “Yes (more dominant epitopes are defined by being recognized by 3 or more donors/different studies)”.
The same measure, in the same setting: with 2298 (IAGHHLGRCDIKDLP) [compound 2298] the entry was “Yes (more dominant epitopes are defined by being recognized by 3 or more donors/different studies)”; with 2300 (IKDLPKEITVATSRT) [compound 2300], “Yes (more dominant epitopes are defined by being recognized by 3 or more donors/different studies)”; with 2301 (KEITVATSRTLSYYK) [compound 2301], “Yes (more dominant epitopes are defined by being recognized by 3 or more donors/different studies)”.
Turning to “2302 (TSRTLSYYKLGASQRVA) [compound 2302]”, in the assay with CD4+ T cells [2], the Dominant result is given as “Yes (more dominant epitopes are defined by being recognized by 3 or more donors/different studies)”.
Take 2303 (SRTLSYYKLGASQRV) [compound 2303]: the Dominant entry in the assay with CD4+ T cells [2] is listed as “Yes (more dominant epitopes are defined by being recognized by 3 or more donors/different studies)”.
On to 2305 (SYYKLGASQRVAGDS) [compound 2305], for which the Dominant entry in the assay with CD4+ T cells [2] is on record as “Yes (more dominant epitopes are defined by being recognized by 3 or more donors/different studies)”.
Same read-out and setting: with 2306 (LGASQRVAGDSGFAA) [compound 2306] the entry was “Yes (more dominant epitopes are defined by being recognized by 3 or more donors/different studies)”; with 2307 (SGFAAYSRYRIGNYK) [compound 2307], “Yes (more dominant epitopes are defined by being recognized by 3 or more donors/different studies)”.
Regarding 2308 (ASWFTALTQHGKEDL) [compound 2308], the Dominant entry in the assay on CD4+ T cells [2] was “Yes (more dominant epitopes are defined by being recognized by 3 or more donors/different studies)”.
On to 2309 (SWFTALTQHGKEDLK) [compound 2309], for which, in the assay with CD4+ T cells [2], the Dominant entry was “Yes (more dominant epitopes are defined by being recognized by 3 or more donors/different studies)”.
Still for that read-out and setting: with 2310 (DDQIGYYRRATRRIR) [compound 2310] the entry was “Yes (more dominant epitopes are defined by being recognized by 3 or more donors/different studies)”; with 2311 (IGYYRRATRRIRGGD) [compound 2311], “Yes (more dominant epitopes are defined by being recognized by 3 or more donors/different studies)”; with 2312 (YYRRATRRIRGGDGK) [compound 2312], “Yes (more dominant epitopes are defined by being recognized by 3 or more donors/different studies)”.
On to 2314 (RWYFYYLGTGPEAGL) [compound 2314], for which the Dominant entry in the assay on CD4+ T cells [2] is given as “Yes (more dominant epitopes are defined by being recognized by 3 or more donors/different studies)”.
Same read-out and setting: with 2315 (NKDGIIWVATEGALN) [compound 2315] the entry was “Yes (more dominant epitopes are defined by being recognized by 3 or more donors/different studies)”; with 2316 (KDGIIWVATEGALNT) [compound 2316], “Yes (more dominant epitopes are defined by being recognized by 3 or more donors/different studies)”.
